Test results published in patent US20110201105A1, “LACTATION-ASSOCIATED POLYPEPTIDES” (Dairy Australia Limited, priority 2007, published 2011).

Tests used:
[1] = system: ERK; test: ERK assay for cell growth-promoting activity (TGR assay), Swiss 3T3 fibroblast cells; format: cell-based; conditions: tammar LAM corresponding to the bovine sample of Table 24
Experimental: (§1) Plasmids containing Tammar wallaby LAMs were directionally cloned into the expression vector pCMV Sport 6.0, and then transfected into the human kidney cell line HK293. A total of 1 μg of LAM-containing plasmid DNA and 10 ng of pEGFP-C1 plasmid was introduced into 70% confluent HK293 cells in 2 cm^2 wells containing 500 ul of opti-MEM-1 media. Transfection success was assessed by observing green fluorescence of cells by fluorescent microscopy. After 48 hours conditioned media containing the secreted polypeptide was collected and frozen at −20° C. The media containing the secreted polypeptides was then used directly in a variety of bioactivity assays. For the assays described below, samples of secreted polypeptides were aliquoted into individual wells of 96 or 384 well plates and stored, prior to assaying, either frozen or lyophilized.
(§2) A negative control created by transfection with an insertless vector was used in all assays. For the assays described in Examples 4A, 4B, 4C and 4D results for samples were in the form of relative fluorescence units (RFU) as described herein. […] In some cases, RFU less than two standard deviations from the mean were considered significant if the LAM sample in question produced a positive result in another assay.
Extracellular signal-regulated protein kinase (ERK) is a common and central signal transduction pathway component of tyrosine kinase receptor. Activation of ERK is indicative of an extracellular proliferation signal and provides an index of a growth promoting agent.
Swiss 3T3 fibroblast cells were plated into 384 well plates, grown to confluence and starved overnight with serum-free medium. Cells were then treated for 10 minutes with a LAM polypeptide prepared as described above. Cells were then lysed and assayed for activation of ERK. Samples were assessed for changes in the activity of ERK.
The results of ERK activation assays are shown in Table 6 as relative fluorescence units (RFU). […] These same samples are equated with LAM numbers as represented in Table 7. […]

[2] = system: AGS cells; test: Cell growth using bovine cathelicidin variants in AGS cells (SRB assay); format: cell-based, human; set-up: unit not given here; conditions: 72 hours; for cell growth Replicate 3: -ve control 0.233; for cell growth Replicate 1: -ve control 0.247; for cell growth Replicate 4: -ve control 0.265; for cell growth Replicate 2: -ve control 0.316; for cell growth Mean: -ve control mean 0.265
Experimental: A cellular growth assay was performed using seven bovine cathelicidin (CATHL) variants, namely CATHL1, 4, and 6 which are known in the art (the relevant sequences can be obtained using the following hyperlink: http://www.ncbi.nlm.nih.gov/entrez/query.fcqi?db=unigene&cmd=search&term=cathelicidin) and bovine Cathelicidins 8, 9, 10 and 11 (being LAMs 32.8, 32.9, 32.10 and 32.11, respectively) as identified herein and which are derived from LAM 32. The bovine cathelicidin associated LAMs were derived by sequence comparison to the tammar polynucleotide sequence of LAM 32.
The growth rate of AGS cells was assessed in the presence of the cathelicidins. Equal numbers of human gastric epithelial AGS cells were cultured in either control media or media conditioned with bovine cathelicidins for 72 hours in a 1:10 dilution of serum and antibiotic-free Optimem. Cells were then fixed and a Sulforhodamine B (SRB) colorimetric assay was undertaken as described in Journal of Immunological Methods 208: 151-158, K. T. Papazisis, G. D. Geromichalos, K. A. Dimitriadis, A. H. Kortsaris (1997), ‘Optimization of the sulforhodamine B colorimetric assay’.
Briefly, cells were fixed directly by incubation with 10% trichloroacetic acid for 1 hour at 4° C., washed with water, air-dried overnight and then stained with 0.4% w/v sulforhodamine B, 1% acetic acid solution for 10 minutes at room temperature. Cell were again washed with 1% acetic acid and air-dried, then counted in triplicate.

[3] = system: chicks; test: Chick growth assay (in ovo injection, weight at hatching); format: in vivo; conditions: for Chick weight: bovine polypeptides in conditioned media, 1 ml in ovo on day 16 of incubation, weighed on day of hatching, Saline 51.0
Experimental: FIG. 5. Chick growth assay by measuring weight. 10 LAMs (being bovine homologues having homology to specific Tammar ESTs), 3 known bovine cathelicidins, and four bovine cathelicidin variants were tested. Conditioned media containing a LAM polypeptides or bovine cathelicidins or variants thereof was diluted in a total of 1 ml of normal saline. Eggs on day 16 of incubation were injected with 1 ml of the media containing the into the broad end of the egg. Chicks were weighed on day of hatching. The overall condition of the chick was assessed including the possible presence of stumpy legs and/or loss of down feathers.
Conditioned media containing LAM polypeptides or bovine cathelicidins or variants thereof were diluted in a total of 1 ml of normal saline. Eggs on day 16 of incubation were injected in ovo with 1 ml of LAM polypeptides or bovine cathelicidins or variants thereof into the broad end of the egg. Chicks were weighed on day of hatching. Controls included saline only, or saline and 10 mg/ml of a peptide as a random peptide control.
As set out in Table 23, the left column indicates the polypeptide used in the assay while the right column contains chick weight in grams as a measurement of chick growth. Bolded numbers represent a chick(s) larger than the controls and more than 2 standard deviations from the mean. In addition, bolded numbers represent chicks that have been killed. The mean represents the weight of all the chicks tested within this experiment.

[4] = system: HSC-2 oral epithelial cells; test: Cell viability assay to assess anti- and pro-apoptotic effects (vinblastine, Alamar Blue); format: cell-based; conditions: HSC-2 cells
Experimental: as §1, §2
Vinblastine is a commonly used cytotoxic agent used in chemotherapy. It induces apoptosis in a wide variety of cell types. Caspase activation and DNA fragmentation are hallmarks of the apoptotic process.
Aliquots of the secreted polypeptide samples in 96 well plates were pipetted onto HSC-2 oral epithelial cells and the cells left for 24 hours. After this time, the cells were treated with vinblastine to induce apoptosis. After a further 48 hours, the cells were analyzed for survival using a vital dye, namely Alamar Blue (resazurin) fluorescent dye (TGR BioSciences Pty Ltd, Adelaide, Australia). This dye method is a TGR proprietary assay technology and as such would be known by a person skilled in the art. Internal controls for induction of cell death via apoptosis as well as assay performance were also included on each plate. Cell survival measurements with this technique reflected the degree of apoptosis.

[5] = system: p38 MAPK; test: p38 MAPK assay of inflammatory activity in the presence of LPS, RAW macrophage cells; format: cell-based
Experimental: as §1
A negative control created by transfection with an insertless vector was used in all assays. For the assays described in Examples 4A, 4B, 4C and 4D results for samples were in the form of relative fluorescence units (RFU) as described herein. […]
Activation of p38 MAPK was assessed in RAW macrophage cells in the presence of lipopolysaccharide (LPS), which is a potent stimulator of the immune system and which mimics bacterial infection, thereby providing a model system for inflammation. […]

Row | Molecule | tammar ERK activity [1] | cell growth Replicate 3 [2] | cell growth Replicate 1 [2] | cell growth Replicate 4 [2] | cell growth Replicate 2 [2] | cell growth Mean [2] | Chick weight [3] | death / overall condition of chick ([3]; in ovo injection on day 16 of incubation) | RFU (pro-apoptotic activity) ([4]; Alamar Blue, Mean RFU 1758076, SD RFU 108156) [RFU] | anti- or pro-apoptotic activity (RFU versus mean) ([4]; text summary of Tables 8-11) | anti-inflammatory activity (RFU significantly below the mean) ([5]; RAW macrophage cells with LPS, text summary of Tables 14 and 15) | RFU (p38 inhibition, anti-inflammatory activity) ([5]; RAW macrophage cells, 30 minutes sample then LPS 30 minutes, Mean RFU 35980, SD RFU 4227, negative control 45833 RFU) [RFU]
1 | CATHL1: bovine cathelicidin 1, known in the art (RLCRIVVIRVCR; UniProt P22226 144-155, looked up) [reference compound] | yes | 0.303 | 0.412 | 0.378 | 0.419 | 0.378 | 52.8 grams |  |  |  |  | 
2 | CATHL2: bovine cathelicidin listed under LAM32, sample number 15 (RFRPPIRRPPIRPPFYPPFRPPIRPPIFPPIRPPFRPPLGPFP; UniProt P19660 131-173, looked up) | yes |  |  |  |  |  |  |  |  |  |  | 
3 | CATHL5: bovine cathelicidin 5 (known sequence) (GGLRSLGRKILRAWKKYGPIIVPIIRIG; UniProt P54229 132-159, looked up) [reference compound] | yes | 0.382 | 0.423 | 0.415 | 0.441 | 0.415 | Killed | caused death of chicks |  |  |  | 
4 | LAM 17: FGL2: Fibrinogen like-1 (Table 24); tammar polypeptide SEQ ID NO 47, bovine SEQ ID NO 107 (protein, UniProt Q29RY7 16-441, looked up) Fibroleukin: TYGFLVVANNETEEIKDEAAQNACRVRLESRGRCEEEGECPYQVNLPPLTIQLPKQFSRIEEVFKEVQNLKEIVNSLKKTCQDCKLQADDSRDPGRNGLLLPGTGAPGETGDNRVRELEGEVNKLSSDLKNAKEEIDVLQGRLEKLNLVNMNNIEQYVDSKVANLTFVVNSLDGKCSSKCPRQEQIQSLPVQQHLIYKDCSEYYTIGKRSSELYRVTPEPRNSSFEVFCDMETMAGGWTVLQARVDGSTNFTRTWQDYKVGFGNLRREFWLGNDKIHLLTKSKDMILRIDLEDFNGIKLYALYDHFYVANEFLKYRLHIGNYNGTAGDALRFSKHYNHDLKFFTTPDRDNDRYPSGNCGLYYSSGWWFDACLSANLNGKYYHQKYRGVRNGIFWGTWPGISEAQPGGYKSSFKEVKMMIRPKHFKP |  |  |  |  |  |  | 49.2 grams |  | 1478245 | pro-apoptotic activity | anti-inflammatory activity | 20814
